From US12173018B2, “Penicillin-binding protein inhibitors” (priority 2018, dated 2024)
pEC50: −log10 of the molar value. In brackets after ≈: the same amount, converted by molar mass.

target: E. coli PBP1b (Escherichia coli (strain K12), UniProt P02919); assay: Radioligand competition binding assay with 14C-labeled boronic acid probe, PBP1b; settings: not given
Sequence (P02919 whole entry): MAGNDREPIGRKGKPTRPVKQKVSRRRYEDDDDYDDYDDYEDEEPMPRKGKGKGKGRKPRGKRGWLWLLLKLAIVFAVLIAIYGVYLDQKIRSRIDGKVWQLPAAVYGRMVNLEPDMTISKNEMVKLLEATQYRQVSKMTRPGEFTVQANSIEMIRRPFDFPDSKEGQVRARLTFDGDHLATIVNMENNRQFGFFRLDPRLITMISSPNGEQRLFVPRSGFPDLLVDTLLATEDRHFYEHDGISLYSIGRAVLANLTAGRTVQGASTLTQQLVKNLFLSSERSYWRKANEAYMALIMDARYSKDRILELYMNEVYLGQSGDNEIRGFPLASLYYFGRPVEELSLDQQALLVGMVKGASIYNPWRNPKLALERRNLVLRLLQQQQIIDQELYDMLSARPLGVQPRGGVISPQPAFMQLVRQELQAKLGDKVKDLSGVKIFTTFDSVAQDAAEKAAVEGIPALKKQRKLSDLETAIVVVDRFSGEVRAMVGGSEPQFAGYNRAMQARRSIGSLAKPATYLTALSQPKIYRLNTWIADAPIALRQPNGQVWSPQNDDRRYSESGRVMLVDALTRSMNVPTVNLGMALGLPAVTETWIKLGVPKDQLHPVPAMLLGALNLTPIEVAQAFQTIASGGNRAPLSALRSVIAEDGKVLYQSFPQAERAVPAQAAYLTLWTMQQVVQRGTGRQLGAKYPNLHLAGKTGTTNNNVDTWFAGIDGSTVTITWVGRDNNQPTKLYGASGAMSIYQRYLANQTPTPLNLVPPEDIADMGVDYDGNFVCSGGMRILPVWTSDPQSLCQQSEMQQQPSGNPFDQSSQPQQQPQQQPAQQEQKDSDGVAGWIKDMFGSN

First: CCN1CCN(C(=O)NC(C(=O)N[C@H]2Cc3cccc(C(=O)O)c3OB2O)c2cnc(N)s2)C(=O)C1=O (stereo partly drawn) [Example 51, (3R)-3-(2-(2-aminothiazol-5-yl)-2-(4-ethyl-2,3-dioxopiperazine-1-carboxamido)acetamido)-2-hydroxy-3,4-dihydro-2H-benzo[e][1,2]oxaborinine-8-carboxylic acid]
Second: CCN1CCN(C(=O)NC(C(=O)N[C@H]2Cc3cccc(C(=O)O)c3OB2O)c2cccs2)C(=O)C1=O (stereo partly drawn) [Example 115, (3R)-3-(2-(4-ethyl-2,3-dioxopiperazine-1-carboxamido)-2-(thiophen-2-yl)acetamido)-2-hydroxy-3,4-dihydro-2H-benzo[e][1,2]oxaborinine-8-carboxylic acid]
The pEC50 of the first is higher: 4.00 to 5.00 for the first, less than 4.00 for the second. The first is the more potent here.

First: CCCN1CCN(C(=O)NC(C(=O)N[C@H]2Cc3cccc(C(=O)O)c3OB2O)c2ccc(O)c(O)c2Cl)C(=O)C1=O (stereo partly drawn) [Example 82, (3R)-3-(2-(2-chloro-3,4-dihydroxyphenyl)-2-(2,3-dioxo-4-propylpiperazine-1-carboxamido)acetamido)-2-hydroxy-3,4-dihydro-2H-benzo[e][1,2]oxaborinine-8-carboxylic acid]
Second: CCCN1CCN(C(=O)NC(C(=O)N[C@H]2Cc3ccc(F)c(C(=O)O)c3OB2O)c2ccc(O)c(O)c2Cl)C(=O)C1=O (stereo partly drawn) [Example 125]
The pEC50 of the first is lower: 4.00 to 5.00 for the first, greater than 5.00 for the second. The second is the more potent here.

`CCN1CCN(C(=O)NC(C(=O)N[C@H]2Cc3cccc(C(=O)O)c3OB2O)c2cccc(N)n2)C(=O)C1=O` (stereo partly drawn) [Example 104, (3R)-3-(2-(6-aminopyridin-2-yl)-2-(4-ethyl-2,3-dioxopiperazine-1-carboxamido)acetamido)-2-hydroxy-3,4-dihydro-2H-benzo[e][1,2]oxaborinine-8-carboxylic acid] and `CCN1CCN(C(=O)NC(C(=O)N[C@H]2Cc3cccc(C(=O)O)c3OB2O)c2cccc(O)n2)C(=O)C1=O` (stereo partly drawn) [Example 117, (3R)-3-(2-(4-ethyl-2,3-dioxopiperazine-1-carboxamido)-2-(6-hydroxypyridin-2-yl)acetamido)-2-hydroxy-3,4-dihydro-2H-benzo[e][1,2]oxaborinine-8-carboxylic acid] cannot be ordered by pEC50: less than 4.00 for the first, less than 4.00 for the second.

`CCN1CCN(C(=O)NC(C(=O)N[C@H]2Cc3cccc(C(=O)[O-])c3OB2O)c2ccc[n+](CC(N)=O)c2)C(=O)C1=O` (stereo partly drawn) [Example 107, (3R)-3-(2-(1-(2-amino-2-oxoethyl)pyridin-1-ium-3-yl)-2-(4-ethyl-2,3-dioxopiperazine-1-carboxamido)acetamido)-2-hydroxy-3,4-dihydro-2H-benzo[e][1,2]oxaborinine-8-carboxylate] and `CCN1CCN(C(=O)NC(C(=O)N[C@H]2Cc3cccc(C(=O)O)c3OB2O)c2ccc(B(O)O)cc2)C(=O)C1=O` (stereo partly drawn) [Example 112] cannot be ordered by pEC50: less than 4.00 for the first, less than 4.00 for the second.

`CCN1CCN(C(=O)NC(C(=O)N[C@H]2Cc3ccc(F)c(C(=O)O)c3OB2O)c2csc(N)n2)C(=O)C1=O` (stereo partly drawn) [Example 109, (3R)-3-(2-(2-aminothiazol-4-yl)-2-(4-ethyl-2,3-dioxopiperazine-1-carboxamido)acetamido)-7-fluoro-2-hydroxy-3,4-dihydro-2H-benzo[e][1,2]oxaborinine-8-carboxylic acid] and `CCN1CCN(C(=O)N[C@@H](C(=O)N[C@H]2Cc3ccc(F)c(C(=O)O)c3OB2O)[C@@H](C)O)C(=O)C1=O` [Example 110, (R)-3-((2R,3R)-2-(4-ethyl-2,3-dioxopiperazine-1-carboxamido)-3-hydroxybutanamido)-7-fluoro-2-hydroxy-3,4-dihydro-2H-benzo[e][1,2]oxaborinine-8-carboxylic acid] cannot be ordered by pEC50: less than 4.00 for the first, less than 4.00 for the second.

`O=C(O)c1cccc2c1OB(O)[C@@H](NC(=O)C(NC(=O)N1CCN(CCF)C(=O)C1=O)c1ccc(B(O)O)cc1)C2` (stereo partly drawn) [Example 113, (3R)-3-(2-(4-boronophenyl)-2-(4-(2-fluoroethyl)-2,3-dioxopiperazine-1-carboxamido)acetamido)-2-hydroxy-3,4-dihydro-2H-benzo[e][1,2]oxaborinine-8-carboxylic acid] and `CCN1CCN(C(=O)NC(C(=O)N[C@H]2Cc3cccc(C(=O)O)c3OB2O)c2cnc(O)cn2)C(=O)C1=O` (stereo partly drawn) [Example 121, (3R)-3-(2-(4-ethyl-2,3-dioxopiperazine-1-carboxamido)-2-(5-hydroxypyrazin-2-yl)acetamido)-2-hydroxy-3,4-dihydro-2H-benzo[e][1,2]oxaborinine-8-carboxylic acid] cannot be ordered by pEC50: less than 4.00 for the first, less than 4.00 for the second.

First: CCN1CCN(C(=O)NC(C(=O)N[C@H]2Cc3ccc(F)c(C(=O)O)c3OB2O)c2ccc(O)c(O)c2Cl)C(=O)C1=O (stereo partly drawn) [Example 124, (3R)-3-(2-(2-chloro-3,4-dihydroxyphenyl)-2-(4-ethyl-2,3-dioxopiperazine-1-carboxamido)acetamido)-7-fluoro-2-hydroxy-3,4-dihydro-2H-benzo[e][1,2]oxaborinine-8-carboxylic acid]
Second: O=C(O)c1c(F)ccc2c1OB(O)[C@@H](NC(=O)C(NC(=O)N1CCN(CCF)C(=O)C1=O)c1ccc(O)c(O)c1Cl)C2 (stereo partly drawn) [Example 131]
The pEC50 of the first is higher: greater than 5.00 for the first, 4.00 to 5.00 for the second. The first is the more potent here.

Compared with `CCN1CCN(C(=O)NC(C(=O)N[C@H]2Cc3ccc(F)c(C(=O)O)c3OB2O)c2cc(O)c(O)cc2F)C(=O)C1=O` (stereo partly drawn) [Example 136, (3R)-3-(2-(4-ethyl-2,3-dioxopiperazine-1-carboxamido)-2-(2-fluoro-4,5-dihydroxyphenyl)acetamido)-7-fluoro-2-hydroxy-3,4-dihydro-2H-benzo[e][1,2]oxaborinine-8-carboxylic acid], `CCN1CCN(C(=O)NC(C(=O)N[C@H]2Cc3ccc(F)c(C(=O)O)c3OB2O)c2ncc(O)cc2F)C(=O)C1=O` (stereo partly drawn) [Example 145, (3R)-3-(2-(4-ethyl-2,3-dioxopiperazine-1-carboxamido)-2-(3-fluoro-5-hydroxypyridin-2-yl)acetamido)-7-fluoro-2-hydroxy-3,4-dihydro-2H-benzo[e][1,2]oxaborinine-8-carboxylic acid] is lower in pEC50: 4.00 to 5.00 for the first, less than 4.00 for the second.

system: E. coli DH5α empty pLBII vector control strain; assay: microbe, parasite or virus in culture; type: cell-based, Escherichia coli; settings: Escherichia coli, read-out: Microbiological Activity (MIC in mg/L), E. coli DH5α/pLBII
Procedure, shortened: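 MIC was the lowest concentration visibly free of growth after 16–20 h at 37 °C, against 5×10^5 CFU/mL of the empty-pLBII DH5α control strain. Twofold compound dilutions were made in cation-adjusted Mueller-Hinton broth.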

First: CCN1CCN(C(=O)NC(C(=O)N[C@H]2Cc3cc(F)cc(C(=O)O)c3OB2O)c2csc(N)n2)C(=O)C1=O (stereo partly drawn) [Example 16, (3R)-3-(2-(2-aminothiazol-4-yl)-2-(4-ethyl-2,3-dioxopiperazine-1-carboxamido)acetamido)-6-fluoro-2-hydroxy-3,4-dihydro-2H-benzo[e][1,2]oxaborinine-8-carboxylic acid]
Second: CCN1CCN(C(=O)NC(C(=O)N[C@H]2Cc3cccc(C(=O)O)c3OB2O)c2cnc(N)s2)C(=O)C1=O (stereo partly drawn) [Example 51, (3R)-3-(2-(2-aminothiazol-5-yl)-2-(4-ethyl-2,3-dioxopiperazine-1-carboxamido)acetamido)-2-hydroxy-3,4-dihydro-2H-benzo[e][1,2]oxaborinine-8-carboxylic acid]
The MIC of the first is higher: 32 to 64 mg/L (≈ 58.4 to 117 µM) for the first, 8 to 16 mg/L (≈ 15.1 to 30.2 µM) for the second.

Compound `CCN1CCN(C(=O)NC(C(=O)N[C@H]2Cc3cccc(C(=O)O)c3OB2O)c2ccc(O)c(O)c2Cl)C(=O)C1=O` (stereo partly drawn) [Example 37, (3R)-3-(2-(2-chloro-3,4-dihydroxyphenyl)-2-(4-ethyl-2,3-dioxopiperazine-1-carboxamido)acetamido)-2-hydroxy-3,4-dihydro-2H-benzo[e][1,2]oxaborinine-8-carboxylic acid] has an MIC of 8 to 16 mg/L (≈ 13.9 to 27.8 µM).

target: E. coli PBP1a (Escherichia coli (strain K12), UniProt P02918); assay: Radioligand competition binding assay with 14C-labeled boronic acid probe, PBP1a; settings: not given
Sequence (P02918 whole entry): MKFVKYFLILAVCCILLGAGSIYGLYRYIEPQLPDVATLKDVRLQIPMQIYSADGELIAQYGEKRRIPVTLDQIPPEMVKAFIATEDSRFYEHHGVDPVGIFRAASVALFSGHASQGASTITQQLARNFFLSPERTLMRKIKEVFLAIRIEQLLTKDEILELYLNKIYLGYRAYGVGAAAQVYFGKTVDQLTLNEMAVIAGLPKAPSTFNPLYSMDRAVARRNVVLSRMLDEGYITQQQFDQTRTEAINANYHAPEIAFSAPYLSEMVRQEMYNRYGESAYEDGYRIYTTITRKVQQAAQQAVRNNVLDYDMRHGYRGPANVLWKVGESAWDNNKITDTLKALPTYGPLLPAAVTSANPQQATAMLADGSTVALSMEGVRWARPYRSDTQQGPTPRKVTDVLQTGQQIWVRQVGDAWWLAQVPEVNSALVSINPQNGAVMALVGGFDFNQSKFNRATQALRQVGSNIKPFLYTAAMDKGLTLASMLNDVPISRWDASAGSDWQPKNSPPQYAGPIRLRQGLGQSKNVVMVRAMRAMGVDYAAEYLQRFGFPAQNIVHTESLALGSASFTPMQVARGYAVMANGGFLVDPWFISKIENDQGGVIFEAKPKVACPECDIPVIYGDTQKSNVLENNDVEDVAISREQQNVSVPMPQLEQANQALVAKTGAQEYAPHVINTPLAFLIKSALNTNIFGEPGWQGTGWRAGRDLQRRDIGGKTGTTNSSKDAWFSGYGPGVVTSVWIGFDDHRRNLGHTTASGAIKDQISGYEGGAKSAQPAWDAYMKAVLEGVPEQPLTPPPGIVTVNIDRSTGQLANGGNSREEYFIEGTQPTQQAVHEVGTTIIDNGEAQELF
Procedure, shortened: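 Purified E. coli PBP1a (0.1 μM) preincubated 60 min with test boronic acid inhibitor in 20 mM Tris pH 7.5, 500 mM NaCl, 0.1% Triton X-100, then 60 min with 20 μM ^14C-labeled boronic acid probe. Bound probe recovered by spin desalting and counted by scintillation; EC50 reported.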

First: CCN1CCN(C(=O)NC(C(=O)N[C@H]2Cc3cccc(C(=O)O)c3OB2O)c2ccc(O)c(O)c2F)C(=O)C1=O (stereo partly drawn) [Example 70]
Second: CCN1CCN(C(=O)NC(C(=O)N[C@H]2Cc3cccc(C(=O)O)c3OB2O)c2ccc(S(N)(=O)=O)cc2)C(=O)C1=O (stereo partly drawn) [Example 102, (3R)-3-(2-(4-ethyl-2,3-dioxopiperazine-1-carboxamido)-2-(4-sulfamoylphenyl)acetamido)-2-hydroxy-3,4-dihydro-2H-benzo[e][1,2]oxaborinine-8-carboxylic acid]
The pEC50 of the first is higher: greater than 5.00 for the first, 4.00 to 5.00 for the second.
